Experimental data from ChEMBL document CHEMBL1201862, “PubChem BioAssay data set” (2004).
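96-well plates; 48 h exposure; 5 concentrations. Endpoints by linear interpolation between flanking doses. Not reached: highest tested concentration assigned. GI50 marks 50% less growth.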 Active and inactive are the calls of the source. No stated cut-off is given here; in the data, active = GI50 up to about 1.1 µM and inactive = higher.

Columns and labels:
Assay in all cases: DTP human tumour cell line panel, 48 h
UACC-62 = tested on: UACC-62
OVCAR-3 = tested on: OVCAR-3
NCI/ADR-RES = tested on: NCI/ADR-RES
UO-31 = tested on: UO-31
EKVX = tested on: EKVX
HOP-92 = tested on: HOP-92
NCI-H23 = tested on: NCI-H23
SF-295 = tested on: SF-295
CAKI-1 = tested on: CAKI-1
K562 = tested on: K562
SNB-75 = tested on: SNB-75
Malme-3M = tested on: Malme-3M
HL-60 = tested on: HL-60
HCT-116 = tested on: HCT-116
SK-OV-3 = tested on: SK-OV-3
MOLT-4 = tested on: MOLT-4
OVCAR-8 = tested on: OVCAR-8
T47D = tested on: T47D
LOX IMVI = tested on: LOX IMVI
MDA-MB-435 = tested on: MDA-MB-435
RPMI-8226 = tested on: RPMI-8226
COLO 205 = tested on: COLO 205
HCC 2998 = tested on: HCC 2998
A498 = tested on: A498
SNB-19 = tested on: SNB-19
HOP-62 = tested on: HOP-62
MDA-N = tested on: MDA-N
KM12 = tested on: KM12
MDA-MB-231 = tested on: MDA-MB-231
786-0 = tested on: 786-0
OVCAR-4 = tested on: OVCAR-4
HCT-15 = tested on: HCT-15
A549 = tested on: A549
PC-3 = tested on: PC-3
ACHN = tested on: ACHN
BT-549 = tested on: BT-549
U-251 = tested on: U-251
SK-MEL-28 = tested on: SK-MEL-28
RXF 393 = tested on: RXF 393
IGROV-1 = tested on: IGROV-1
TK-10 = tested on: TK-10
SK-MEL-5 = tested on: SK-MEL-5
OVCAR-5 = tested on: OVCAR-5
NCI-H460 = tested on: NCI-H460
SN12C = tested on: SN12C
MCF7 = tested on: MCF7
DU-145 = tested on: DU-145
SF-268 = tested on: SF-268
Hs-578T = tested on: Hs-578T
UACC-257 = tested on: UACC-257
HT-29 = tested on: HT-29
NCI-H226 = tested on: NCI-H226
SW-620 = tested on: SW-620
NCI-H522 = tested on: NCI-H522
M14 = tested on: M14
SF-539 = tested on: SF-539
CCRF-CEM = tested on: CCRF-CEM
SK-MEL-2 = tested on: SK-MEL-2
SR = tested on: SR

CC(C)CN(CC#N)CC(C)C
GI50 (UACC-62): > 100 µM (inactive)
GI50 (OVCAR-3): > 100 µM (inactive)
GI50 (NCI/ADR-RES): > 100 µM (inactive)
GI50 (UO-31): > 100 µM (inactive)
GI50 (EKVX): > 100 µM (inactive)
GI50 (HOP-92): > 100 µM (inactive)
GI50 (NCI-H23): > 100 µM (inactive)
GI50 (SF-295): > 100 µM (inactive)
GI50 (CAKI-1): > 100 µM (inactive)
GI50 (K562): > 100 µM (inactive)
GI50 (SNB-75): > 100 µM (inactive)
GI50 (Malme-3M): > 100 µM (inactive)
GI50 (HL-60): > 100 µM (inactive)
GI50 (HCT-116): > 100 µM (inactive)
GI50 (SK-OV-3): > 100 µM (inactive)
GI50 (MOLT-4): > 100 µM (inactive)
GI50 (OVCAR-8): > 100 µM (inactive)
GI50 (T47D): > 100 µM (inactive)
GI50 (LOX IMVI): > 100 µM (inactive)
GI50 (MDA-MB-435): > 100 µM (inactive)
GI50 (RPMI-8226): 48.9 µM (inactive)
GI50 (COLO 205): > 100 µM (inactive)
GI50 (HCC 2998): > 100 µM (inactive)
GI50 (A498): > 100 µM (inactive)
GI50 (SNB-19): > 100 µM (inactive)
GI50 (HOP-62): > 100 µM (inactive)
GI50 (MDA-N): > 100 µM (inactive)
GI50 (KM12): > 100 µM (inactive)
GI50 (MDA-MB-231): > 100 µM (inactive)
GI50 (786-0): > 100 µM (inactive)
GI50 (OVCAR-4): > 100 µM (inactive)
GI50 (HCT-15): > 100 µM
GI50 (A549): > 100 µM (inactive)
GI50 (PC-3): > 100 µM (inactive)
GI50 (ACHN): > 100 µM (inactive)
GI50 (BT-549): > 100 µM (inactive)
GI50 (U-251): > 100 µM (inactive)
GI50 (SK-MEL-28): > 100 µM (inactive)
GI50 (RXF 393): > 100 µM (inactive)
GI50 (IGROV-1): > 100 µM (inactive)
GI50 (TK-10): > 100 µM (inactive)
GI50 (SK-MEL-5): > 100 µM (inactive)
GI50 (OVCAR-5): > 100 µM (inactive)
GI50 (NCI-H460): > 100 µM (inactive)
GI50 (SN12C): > 100 µM (inactive)
GI50 (MCF7): > 100 µM (inactive)
GI50 (DU-145): > 100 µM (inactive)
GI50 (SF-268): > 100 µM (inactive)
GI50 (Hs-578T): > 100 µM (inactive)
GI50 (UACC-257): > 100 µM (inactive)
GI50 (HT-29): > 100 µM (inactive)
GI50 (NCI-H226): > 100 µM (inactive)
GI50 (SW-620): > 100 µM (inactive)
GI50 (NCI-H522): > 100 µM (inactive)
GI50 (M14): > 100 µM (inactive)

C/C(=N\c1ccc(Cl)cc1)c1ccncc1
GI50 (OVCAR-3): 41 µM (inactive)
GI50 (NCI/ADR-RES): > 100 µM (inactive)
GI50 (UO-31): 4.04 µM (inactive)
GI50 (EKVX): 27.9 µM (inactive)
GI50 (HOP-92): > 100 µM (inactive)
GI50 (NCI-H23): 67.8 µM (inactive)
GI50 (SF-295): > 100 µM (inactive)
GI50 (CAKI-1): > 100 µM (inactive)
GI50 (K562): > 100 µM (inactive)
GI50 (SNB-75): > 100 µM (inactive)
GI50 (Malme-3M): > 100 µM (inactive)
GI50 (HCT-116): > 100 µM (inactive)
GI50 (MOLT-4): 3.4 µM (inactive)
GI50 (OVCAR-8): > 100 µM (inactive)
GI50 (T47D): 0.809 µM (active)
GI50 (LOX IMVI): > 100 µM (inactive)
GI50 (MDA-MB-435): 1.9 µM (inactive)
GI50 (RPMI-8226): 7.08 µM (inactive)
GI50 (COLO 205): 5.64 µM (inactive)
GI50 (HCC 2998): > 100 µM (inactive)
GI50 (A498): 3.96 µM (inactive)
GI50 (SNB-19): > 100 µM (inactive)
GI50 (HOP-62): > 100 µM (inactive)
GI50 (SF-539): 4.31 µM (inactive)
GI50 (MDA-N): > 100 µM (inactive)
GI50 (KM12): > 100 µM (inactive)
GI50 (MDA-MB-231): > 100 µM (inactive)
GI50 (786-0): > 100 µM (inactive)
GI50 (OVCAR-4): > 100 µM (inactive)
GI50 (CCRF-CEM): 1.22 µM (inactive)
GI50 (HCT-15): 0.36 µM
GI50 (A549): 4.73 µM (inactive)
GI50 (PC-3): > 100 µM (inactive)
GI50 (ACHN): 0.233 µM (active)
GI50 (BT-549): > 100 µM (inactive)
GI50 (U-251): > 100 µM (inactive)
GI50 (SK-MEL-28): 5.14 µM (inactive)
GI50 (RXF 393): > 100 µM (inactive)
GI50 (SK-MEL-5): 2.13 µM (inactive)
GI50 (OVCAR-5): > 100 µM (inactive)
GI50 (NCI-H460): > 100 µM (inactive)
GI50 (SN12C): > 100 µM (inactive)
GI50 (MCF7): 32.4 µM (inactive)
GI50 (DU-145): > 100 µM (inactive)
GI50 (SF-268): 53.5 µM (inactive)
GI50 (SK-MEL-2): > 100 µM (inactive)
GI50 (Hs-578T): > 100 µM (inactive)
GI50 (UACC-257): 22.6 µM (inactive)
GI50 (HT-29): > 100 µM (inactive)
GI50 (NCI-H226): > 100 µM (inactive)
GI50 (SW-620): 2.72 µM (inactive)
GI50 (NCI-H522): > 100 µM (inactive)
GI50 (M14): > 100 µM (inactive)

CCC/C(Cl)=N\OC(=O)Nc1cccc(C(F)(F)F)c1
GI50 (UACC-62): 18.9 µM (inactive)
GI50 (OVCAR-3): 22.4 µM (inactive)
GI50 (NCI/ADR-RES): 20.6 µM (inactive)
GI50 (UO-31): 19.6 µM (inactive)
GI50 (EKVX): 16.6 µM (inactive)
GI50 (NCI-H23): 20.7 µM (inactive)
GI50 (SF-295): 13.5 µM (inactive)
GI50 (SR): 2.26 µM (inactive)
GI50 (CAKI-1): 18.1 µM (inactive)
GI50 (K562): 2.28 µM (inactive)
GI50 (SNB-75): 10.4 µM (inactive)
GI50 (Malme-3M): 13.2 µM (inactive)
GI50 (HL-60): 1.88 µM (inactive)
GI50 (HCT-116): 18.2 µM (inactive)
GI50 (SK-OV-3): 13.6 µM (inactive)
GI50 (MOLT-4): 2.94 µM (inactive)
GI50 (OVCAR-8): 17.9 µM (inactive)
GI50 (T47D): 23.9 µM (inactive)
GI50 (LOX IMVI): 6.84 µM (inactive)
GI50 (RPMI-8226): 4.61 µM (inactive)
GI50 (COLO 205): 3.05 µM (inactive)
GI50 (HCC 2998): 18.2 µM (inactive)
GI50 (A498): 17.8 µM (inactive)
GI50 (SNB-19): > 100 µM (inactive)
GI50 (HOP-62): > 100 µM (inactive)
GI50 (SF-539): 18.7 µM (inactive)
GI50 (MDA-N): 17.6 µM (inactive)
GI50 (KM12): 17.6 µM (inactive)
GI50 (MDA-MB-231): 17 µM (inactive)
GI50 (786-0): 16 µM (inactive)
GI50 (OVCAR-4): 22.6 µM (inactive)
GI50 (CCRF-CEM): 2.43 µM (inactive)
GI50 (HCT-15): 13.5 µM
GI50 (A549): 19.7 µM (inactive)
GI50 (PC-3): 17.6 µM (inactive)
GI50 (ACHN): 16.3 µM (inactive)
GI50 (BT-549): 10.6 µM (inactive)
GI50 (U-251): 18.5 µM (inactive)
GI50 (SK-MEL-28): 19.2 µM (inactive)
GI50 (RXF 393): 19.6 µM (inactive)
GI50 (IGROV-1): 17.1 µM (inactive)
GI50 (TK-10): 15.4 µM (inactive)
GI50 (SK-MEL-5): 15.5 µM (inactive)
GI50 (OVCAR-5): 20.3 µM (inactive)
GI50 (NCI-H460): 19.4 µM (inactive)
GI50 (SN12C): 15.1 µM (inactive)
GI50 (MCF7): 14 µM (inactive)
GI50 (DU-145): 13.2 µM (inactive)
GI50 (SF-268): 27.3 µM (inactive)
GI50 (SK-MEL-2): 16.7 µM (inactive)
GI50 (Hs-578T): 29.7 µM (inactive)
GI50 (UACC-257): 17.5 µM (inactive)
GI50 (HT-29): 21.8 µM (inactive)
GI50 (NCI-H226): 20.5 µM (inactive)
GI50 (SW-620): 2.81 µM (inactive)
GI50 (NCI-H522): 1.96 µM (inactive)
GI50 (M14): 17.7 µM (inactive)
